Measured values from paper PMC3598812, “Evaluation of Anti-Hyperalgesic and Analgesic Effects of Two Benzodiazepines in Human Experimental Pain: A Randomized Placebo-Controlled Study” (PLoS ONE, 2013).

How the values were obtained:
healthy male volunteers [1] = test: Pain rating (VAS) after graded von Frey hair stimulation in the capsaicin hyperalgesic area; type: in vivo, human; settings: VAS 0-10, single oral dose (clobazam 20 mg, clonazepam 1 mg, tolterodine 1 mg), mean (SD)
Procedure: Additionally, mechanical pain sensitivity was assessed using a set of seven weighted pinprick stimuli to obtain a stimulus-response function. The test was applied 1 cm inside the outer border of the pinprick hyperalgesic area, using a set of 7 graded von Frey hair mechanical stimulators with fixed stimulus intensities (custom-made at Aalborg University, Denmark). The flat contact area of the stimulators has a 0.2 mm diameter, and the 7 stimulators exert forces of 8, 16, 32, 64, 128, 256 and 512 mN. The order of stimulation was defined randomly by computer. The stimulators were applied at a rate of 2 s on/2 s off. Subjects were asked to give a pain rating for each stimulus on a 10 cm VAS. Two assessments for each stimulation were made and the mean of these 2 measurements was used for the data analysis.

healthy male volunteers [2] = test: Psychomotor performance, digit symbol substitution test (DSST); settings: for DSST-score: single oral dose (clobazam 20 mg, clonazepam 1 mg, tolterodine 1 mg), mean (SD)
Procedure: The psychomotor performance was assessed by the digit symbol substitution test (DSST), a subscale of the Wechsler Adult Intelligence Scale. The DSST evaluates the ability to concentrate and modifications in processing information [23]. It is a two-minute paper-and-pencil test. The subject was asked to replace digits with corresponding symbols according to a code given on the same sheet of paper. The score consists in the total number and the correct number of symbols drawn.
Pressure pain, conditioned pain modulation (CPM), intramuscular electrical pain tests, cuff algometry and DSST were performed 120 min after drug intake.
After 15 min, the whole battery of tests was performed.

healthy male volunteers [3] = test: Cutaneous repeated (20 stimuli) electrical stimulation, VAS; type: in vivo, human; set-up: AUC of VAS during 20 cutaneous electrical stimuli: unit not given beside the values; settings: mean (SD); for Maximal VAS during 20 cutaneous electrical stimuli: VAS 0-10
Procedure: The stimulus burst used for single stimulus was repeated for a train of 20 pulses at 2 Hz, at an intensity corresponding to the temporal summation threshold. During this 10 s stimulation, pain intensity was continuously rated by the subject with an electronic VAS, and the area under the curve (AUC) was computed. Additionally, the maximal VAS during stimulation was recorded.

healthy male volunteers [4] = test: Area of dynamic mechanical hyperalgesia after intradermal capsaicin (cotton wool stroking); type: in vivo, human; settings: single oral dose (clobazam 20 mg, clonazepam 1 mg, tolterodine 1 mg), mean (SD)
Procedure: The area of dynamic mechanical hyperalgesia was determined by gently stroking a hand-held cotton wool tip on a 1 cm strip of the skin, at a rate of approximately 1 cm/s. Subjects were asked to report when the sensation changed from a non-painful to a painful sensation. The borders of dynamic hyperalgesia were delineated similarly to the determination of static hyperalgesia.

healthy male volunteers [5] = test: Conditioned pain modulation (cold pressor test and pressure algometry); type: in vivo, human; settings: difference in pressure pain detection threshold after vs before cold pressor test, mean (SD)
Excerpt: This method explores the endogenous modulation of nociceptive input. Under normal conditions, pain after application of a “test” nociceptive stimulus is attenuated by the application of an additional conditioning noxious stimulus to a remote body region, reflecting diffuse endogenous inhibition, [20]. In the present study, pressure pain detection threshold and cold pressure test (see below) were used as test and conditioning stimuli, respectively. An increase in pressure pain detection threshold immediately after cold pressure test was an indication of CPM.
The subjects placed their hand into a container filled with ice water. In order to maximize heterotopic stimulation, the hand contralateral to the side of pressure stimulation was used. The water was regularly mixed to maintain the temperature near to 0°C. The temperature of the water near the hand was monitored by a thermometer with a digital display (±0.1°C). The subjects were asked to keep the hand in the water until they felt an intolerable sensation of pain and were forced to remove the hand from the container, with a maximum time of 2 min.
Pressure pain detection threshold was measured again at the same time as the subject was withdrawing the hand from the water (one single measurement). CPM was measured as the difference in pressure pain detection threshold between measurements after and before the cold pressure test.

healthy male volunteers [6] = test: Cutaneous repeated (5 stimuli) electrical stimulation, temporal summation threshold; type: in vivo, human; settings: mean (SD)
Excerpt: The stimulus burst used for single stimulus was repeated 5 times at 2 Hz, at constant intensity. The current intensity of the 5 stimuli was increased from 1 mA in steps of 0.5 mA until the subjects felt pain during the last 2–3 of the 5 stimuli (indicating temporal summation).
(§1) Three assessments were made and the mean of these 3 measurements was used for the data analysis.

healthy male volunteers [7] = test: Cutaneous single electrical stimulation pain threshold; type: in vivo, human; settings: mean (SD)
Procedure: Electrical stimulation was performed through electrodes placed distal to the lateral malleolus. A 25 ms, train-of-five, 1 ms, square-wave impulse (perceived as one stimulus), was delivered by a computer-controlled constant current stimulator (Digitimer DS7A, Neurospec, Letchworth Garden City, UK). The current intensity was increased from 1 mA in steps of 0.5 mA until a pain sensation was evoked.
as §1

[8] = baseline before medication, per drug session
[9] = single oral dose (clobazam 20 mg, clonazepam 1 mg, tolterodine 1 mg), 30 min after medication
[10] = single oral dose (clobazam 20 mg, clonazepam 1 mg, tolterodine 1 mg), 60 min after medication
[11] = single oral dose (clobazam 20 mg, clonazepam 1 mg, tolterodine 1 mg), 90 min after medication
[12] = single oral dose (clobazam 20 mg, clonazepam 1 mg, tolterodine 1 mg), 120 min after medication
[13] = single oral dose (clobazam 20 mg, clonazepam 1 mg, tolterodine 1 mg), after flumazenil 0.2 mg iv

**Q.** What does the source list for O=C1CN=C(c2ccccc2Cl)c2cc([N+](=O)[O-])ccc2N1 [Clonazepam]?
**A.** VAS after von Frey hair 8 mN (healthy male volunteers [1]; 30 min after medication): 1.4 (1.5); VAS after von Frey hair 16 mN (healthy male volunteers [1]; 30 min after medication): 1.6 (1.2); VAS after von Frey hair 32 mN (healthy male volunteers [1]; 30 min after medication): 1.9 (1.5); VAS after von Frey hair 64 mN (healthy male volunteers [1]; 30 min after medication): 2.8 (1.8); VAS after von Frey hair 128 mN (healthy male volunteers [1]; 30 min after medication): 3.2 (4.2); VAS after von Frey hair 256 mN (healthy male volunteers [1]; 30 min after medication): 4.2 (2.2); VAS after von Frey hair 512 mN (healthy male volunteers [1]; 30 min after medication): 5.2 (2.1); VAS after von Frey hair 8 mN (healthy male volunteers [1]; 60 min after medication): 1.2 (0.9); VAS after von Frey hair 16 mN (healthy male volunteers [1]; 60 min after medication): 1.8 (1.9); VAS after von Frey hair 32 mN (healthy male volunteers [1]; 60 min after medication): 2.0 (2.0); VAS after von Frey hair 64 mN (healthy male volunteers [1]; 60 min after medication): 2.7 (2.0); VAS after von Frey hair 128 mN (healthy male volunteers [1]; 60 min after medication): 3.5 (2.0); VAS after von Frey hair 256 mN (healthy male volunteers [1]; 60 min after medication): 4.1 (1.8); VAS after von Frey hair 512 mN (healthy male volunteers [1]; 60 min after medication): 5.1 (2.0); VAS after von Frey hair 8 mN (healthy male volunteers [1]; 90 min after medication): 0.8 (0.8); VAS after von Frey hair 16 mN (healthy male volunteers [1]; 90 min after medication): 1.3 (1.0); VAS after von Frey hair 32 mN (healthy male volunteers [1]; 90 min after medication): 1.8 (1.4); VAS after von Frey hair 64 mN (healthy male volunteers [1]; 90 min after medication): 2.1 (1.6); VAS after von Frey hair 128 mN (healthy male volunteers [1]; 90 min after medication): 2.8 (1.7); VAS after von Frey hair 256 mN (healthy male volunteers [1]; 90 min after medication): 4.4 (2.0); VAS after von Frey hair 512 mN (healthy male volunteers [1]; 90 min after medication): 5.3 (2.1); VAS after von Frey hair 8 mN (healthy male volunteers [1]; 120 min after medication): 1.0 (0.8); VAS after von Frey hair 16 mN (healthy male volunteers [1]; 120 min after medication): 1.4 (1.2); VAS after von Frey hair 32 mN (healthy male volunteers [1]; 120 min after medication): 2.1 (1.7); VAS after von Frey hair 64 mN (healthy male volunteers [1]; 120 min after medication): 2.3 (1.5); VAS after von Frey hair 128 mN (healthy male volunteers [1]; 120 min after medication): 2.9 (1.9); VAS after von Frey hair 256 mN (healthy male volunteers [1]; 120 min after medication): 3.9 (2.2); VAS after von Frey hair 512 mN (healthy male volunteers [1]; 120 min after medication): 5.0 (1.9); VAS after von Frey hair 8 mN (healthy male volunteers [1]; after flumazenil 0.2 mg iv): 0.6 (0.6); VAS after von Frey hair 16 mN (healthy male volunteers [1]; after flumazenil 0.2 mg iv): 1.4 (1.2); VAS after von Frey hair 32 mN (healthy male volunteers [1]; after flumazenil 0.2 mg iv): 1.6 (1.4); VAS after von Frey hair 64 mN (healthy male volunteers [1]; after flumazenil 0.2 mg iv): 2.2 (1.7); VAS after von Frey hair 128 mN (healthy male volunteers [1]; after flumazenil 0.2 mg iv): 2.6 (1.9); VAS after von Frey hair 256 mN (healthy male volunteers [1]; after flumazenil 0.2 mg iv): 3.8 (1.7); VAS after von Frey hair 512 mN (healthy male volunteers [1]; after flumazenil 0.2 mg iv): 4.9 (1.7); DSST score compared with tolterodine at 120 min (healthy male volunteers [2]; main analysis, pairwise comparison within the time-points): significantly associated to a lower score; DSST-score (healthy male volunteers [2]; 120 min after drug administration): 69.3 (15.8); DSST-score (healthy male volunteers [2]; after flumazenil 0.2 mg iv): 79.1 (14.5); Psychomotor performance (DSST) at 120 minutes compared with the other two drugs (healthy male volunteers [2]; subgroup analysis (n = 8), pairwise multiple comparison): lower psychomotor performance; Change of DSST score after flumazenil injection (healthy male volunteers [2]; subgroup analysis (n = 8), within drug): significantly increased; Maximal VAS during 20 cutaneous electrical stimuli (healthy male volunteers [3]; [8]): 4.9 (1.6); Maximal VAS during 20 cutaneous electrical stimuli (healthy male volunteers [3]; [9]): 5.4 (2.0); Maximal VAS during 20 cutaneous electrical stimuli (healthy male volunteers [3]; [10]): 5.0 (2.3); Maximal VAS during 20 cutaneous electrical stimuli (healthy male volunteers [3]; [11]): 4.7 (2.1); Maximal VAS during 20 cutaneous electrical stimuli (healthy male volunteers [3]; [12]): 4.4 (1.6); Maximal VAS during 20 cutaneous electrical stimuli (healthy male volunteers [3]; [13]): 4.2 (1.6); AUC of VAS during 20 cutaneous electrical stimuli (healthy male volunteers [3]; [8]): 359 (144); AUC of VAS during 20 cutaneous electrical stimuli (healthy male volunteers [3]; [9]): 352 (131); AUC of VAS during 20 cutaneous electrical stimuli (healthy male volunteers [3]; [10]): 349 (185); AUC of VAS during 20 cutaneous electrical stimuli (healthy male volunteers [3]; [11]): 351 (141); AUC of VAS during 20 cutaneous electrical stimuli (healthy male volunteers [3]; [12]): 344 (148); AUC of VAS during 20 cutaneous electrical stimuli (healthy male volunteers [3]; [13]): 322 (137); Area of dynamic hyperalgesia (healthy male volunteers [4]; 30 min after medication): 22.4 (11.2) cm^2; Area of dynamic hyperalgesia (healthy male volunteers [4]; 60 min after medication): 19.0 (07.8) cm^2; Area of dynamic hyperalgesia (healthy male volunteers [4]; 90 min after medication): 21.7 (12.6) cm^2; Area of dynamic hyperalgesia (healthy male volunteers [4]; 120 min after medication): 16.8 (10.8) cm^2; Area of dynamic hyperalgesia (healthy male volunteers [4]; after flumazenil 0.2 mg iv): 19.2 (13.1) cm^2; Conditioned pain modulation (healthy male volunteers [5]; [8]): 70 (113) kPa; Conditioned pain modulation (healthy male volunteers [5]; [12]): 85 (77) kPa; Conditioned pain modulation (healthy male volunteers [5]; [13]): 74 (86) kPa; Pain threshold after 5 cutaneous electrical stimuli (healthy male volunteers [6]; [8]): 8.2 (3.1) mA; Pain threshold after 5 cutaneous electrical stimuli (healthy male volunteers [6]; [9]): 8.2 (3.0) mA; Pain threshold after 5 cutaneous electrical stimuli (healthy male volunteers [6]; [10]): 8.5 (2.9) mA; Pain threshold after 5 cutaneous electrical stimuli (healthy male volunteers [6]; [11]): 8.8 (3.2) mA; Pain threshold after 5 cutaneous electrical stimuli (healthy male volunteers [6]; [12]): 9.1 (3.1) mA; Pain threshold after 5 cutaneous electrical stimuli (healthy male volunteers [6]; [13]): 9.2 (3.3) mA; Pain threshold after single cutaneous electrical stimulation (healthy male volunteers [7]; [8]): 9.7 (3.3) mA; Pain threshold after single cutaneous electrical stimulation (healthy male volunteers [7]; [9]): 9.8 (3.5) mA; Pain threshold after single cutaneous electrical stimulation (healthy male volunteers [7]; [10]): 10.3 (3.4) mA; Pain threshold after single cutaneous electrical stimulation (healthy male volunteers [7]; [11]): 10.6 (3.6) mA; Pain threshold after single cutaneous electrical stimulation (healthy male volunteers [7]; [12]): 11.0 (3.6) mA; Pain threshold after single cutaneous electrical stimulation (healthy male volunteers [7]; [13]): 11.2 (3.9) mA
